A short description of assay [1]: Calcium flux by HMVEC Calcium mobilization assay at 2.0 nM alpha thrombin. Format: functional. Also on record: unit not given here.
A short description of assay [2]: In vitro antagonist activity against U-46,619 induced gel-filtered Platelet (GFP) aggregation at 50 uM; NA=Inactive. The class given is functional.
The target in assay [3] is T1, Proteinase-activated receptor 1 (Homo sapiens, UniProt P25116).
T1 sequence (P25116 whole entry): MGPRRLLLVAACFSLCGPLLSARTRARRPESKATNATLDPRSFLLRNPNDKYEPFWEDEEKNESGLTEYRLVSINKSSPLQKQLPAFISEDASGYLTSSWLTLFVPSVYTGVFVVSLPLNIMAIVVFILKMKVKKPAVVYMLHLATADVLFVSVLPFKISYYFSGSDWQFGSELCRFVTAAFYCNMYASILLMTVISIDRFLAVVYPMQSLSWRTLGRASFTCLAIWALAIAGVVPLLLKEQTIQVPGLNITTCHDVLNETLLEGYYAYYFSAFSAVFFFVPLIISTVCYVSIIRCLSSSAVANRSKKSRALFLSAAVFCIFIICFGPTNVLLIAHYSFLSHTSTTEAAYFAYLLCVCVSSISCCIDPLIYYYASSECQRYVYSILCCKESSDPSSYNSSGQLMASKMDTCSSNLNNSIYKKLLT
The assay is described as follows: Binding affinity against Protease-activated receptor (PAR-1) using [3H]-s-(p-F-Phe)-homoarginine-L-homoarginine-KY-NH2, 10 nM (Kd= 15 nM).

A short description of assay [4]: Calcium flux by RASMC Calcium mobilization assay at 2.0 nM alpha thrombin. The class given is functional. The arrangement: unit not given here. A general note: Calcium assays in cells follow changes in intracellular calcium, usually with a dye or a luminescent sensor.
Assay [5] can be described thus: In vitro antagonist activity against SFLLRN-NH2 induced gel-filtered platelet (GFP) aggregation at 2 uM. Format: functional.
A short description of assay [6]: Proliferation by RASMC proliferation assay at 0.8 nM alpha thrombin. The arrangement: unit not given here.
A short description of assay [7]: In vitro antagonist activity against U-46,619 induced gel-filtered Platelet (GFP) aggregation at 0.3 uM. The class given is functional.
The nature of assay [8]: In vitro antagonist activity against collagen induced gel-filtered platelet (GFP) aggregation at 3 ug/mL.
Assay [9] can be described thus: in vitro antagonist activity against U-46,619 induced gel-filtered Platelet (GFP) aggregation at 0.3 uM. The class given is functional.
Assay [10] deals with T1, Proteinase-activated receptor 1. Kind of assay: Binding Affinity of ligand against Protease-activated Receptor (PAR-1) using [3H]-s-(p-F-Phe)-homoarginine-L-homoarginine-KY-NH2, 10 nM (Kd= 15 nM).

Where only a bound is given, the exact number is not on record here.

In the case of `N=C(N)NCCC[C@H](NC(=O)[C@H](Cc1ccc(F)c(F)c1)NC(=O)Nc1ccc2c(CN3CCCC3)cn(Cc3c(Cl)cccc3Cl)c2c1)C(=O)NCc1ccccc1`, the Ca2+ flux in [1] was 0.09; in [4], 0.13. For the same compound, the IC50 – broadly, the point on the concentration scale where inhibition reaches its midpoint – in assay [2] was “Not Active”; in assay [3] it was 820 nM; in [5], 180 nM. For the same compound, the Proliferation in assay [6] was 2.4.
Turning to `COc1ccc(C[C@H](NC(=O)Nc2ccc3c(CN4CCCC4)cn(Cc4ccc(OC(F)(F)F)cc4)c3c2)C(=O)N[C@@H](CCCN=C(N)N)C(=O)NCc2ccccc2)cc1`, the IC50 in assay [7] was determined as 25.5 µM; in [3], 2400 nM; in assay [5], 3200 nM; in [8] it was 24.2 µM.
Consider `N=C(N)NCCC[C@H](NC(=O)[C@H](Cc1ccc(F)c(F)c1)NC(=O)Nc1ccc2c(CN3CCCC3)cn(Cc3c(Cl)cccc3Cl)c2c1)C(=O)NCc1ccncc1`, for which the figures for the Ca2+ flux in assay [1] and in [4] were 0.17 and 0.21, respectively. Further, the IC50 in assay [9] is 13.3 µM; in assay [3], 40 nM; in assay [5], 360 nM. Besides, the Proliferation in assay [6] is 6.5.
With `COc1ccc(C[C@H](NC(=O)Nc2ccc3c(CNC4CCCC4)cn(Cc4ccc(F)cc4)c3c2)C(=O)N[C@@H](CCCN=C(N)N)C(=O)NCc2ccccc2)cc1`, the IC50 in assay [7] is 49.1 µM; in [3] it was 10700 nM; in assay [5], 2200 nM; in [8], 41.4 µM.
Take `COc1ccc(C[C@H](NC(=O)Nc2ccc3c(CN4CCCC4)cn(Cc4ccc(F)cc4)c3c2)C(=O)N[C@@H](CCCN=C(N)N)C(=O)NCc2ccccc2)cc1`: the Ca2+ flux in assay [1] was 0.54; in assay [4] it was 7.8. Further, the IC50 entry was “Not Active” in assay [2], 2200 nM in assay [3] and 270 nM in assay [5]. The compound further yielded a Proliferation in [6] of more than 30.
For `NCC[C@H](NC(=O)[C@H](Cc1ccc(F)c(F)c1)NC(=O)Nc1ccc2c(CN3CCCC3)nn(Cc3c(Cl)cccc3Cl)c2c1)C(=O)NCc1ccccc1` [RWJ-58259], the values for the IC50 entry in assay [2], in [10] and in [5] were “Not Active”, 150 nM and 110 nM, respectively. Moreover, in assay [4], the Ca2+ flux was 0.07. The compound further came in with a Proliferation in [6] of 2.3.
Take `COc1ccc(C[C@H](NC(=O)Nc2ccc3c(CN4CCCC4)cn(Cc4c(Cl)cccc4Cl)c3c2)C(=O)N[C@@H](CCCNC(=N)N)C(=O)NCc2ccccc2)cc1` [RWJ-54003]: the Ca2+ flux in [1] was 0.33; in [4] it was 0.93. Further, the 50% inhibitory concentration (IC50) entry in assay [2] was “Not Active”; in assay [3] it was 1300 nM; in [5] it was 300 nM; in assay [8], 46.3 µM. Besides, the Proliferation in [6] was 7.3.
For `N=C(N)NCCC[C@H](NC(=O)[C@H](Cc1ccccc1)NC(=O)Nc1ccc2c(CN3CCCC3)cn(Cc3ccc(F)cc3)c2c1)C(=O)NCc1ccccc1`, the results for the IC50 in assay [3], in [5] and in [8] were 700 nM, 300 nM and 12.7 µM, respectively.
